Data taken from US3960877A, “N-monosubstituted-2,3-pyridinedicarboxamides, and related compounds” (priority 1974, dated 1976).

How the values were obtained:
Type in all cases: in vivo
Velvetleaf [1] = assay: Preemergence herbicidal activity, % control of plant growth; conditions: Abutilon theophrasti, pre-emergence, 504 h, 16 lb/acre, about 3 weeks
Text: (§1) By "preemergence" is meant that the compound is applied to the soil prior to emergence of the weed species sought to be controlled. This term, as used herein, also means the application of the herbicidal compounds falling within the scope of this disclosure to areas wherein useful or desirable plants are either growing or have been sown, but where the undesirable plants sought to be controlled have not as yet emerged.
(§2) In using the compound, seeds of the types of plants set forth in Table II were sown in fresh soil. In the preemergence test the soil was sprayed with a solution of the test compound immediately after the seeds were planted, and before any noticeable growth developed. The solution was about a 2 percent by weight solution of the compound in acetone and/or alcohol. The compound was applied at the rate of 16 pounds per acre of soil surface.
(§3) Approximately 3 weeks after spray application, the herbicidal activity of the compound was determined by visual observation of the treated area in comparison with untreated control areas. These observations are reported below in Table II wherein the average activity rating is reported as the percent control of plant growth.
(§4) *Preemergence test: compound applied at rate of 16 lb/acre

Crabgrass [2] = assay: as above; conditions: for pest or weed control at 17933.6 g/ha: Digitaria sanguinalis, pre-emergence, 504 h, 16 lb/acre, about 3 weeks
Text: as §1, §2, §3, §4

Wild Oats [3] = assay: as above; conditions: Avena fatua, pre-emergence, 504 h, 16 lb/acre, about 3 weeks
Text: as §1, §2, §3, §4

Barnyard Grass [4] = assay: as above; conditions: Echinochloa crus-galli, pre-emergence, 504 h; barnyard grass; 16 lb/acre; about 3 weeks
Text: as §1, §2, §3, §4

Curled Dock [5] = assay: as above; conditions: for pest or weed control at 17933.6 g/ha: pre-emergence, 504 h, 16 lb/acre, about 3 weeks
Text: as §1, §2, §3, §4

Pigweed [6] = assay: as above; conditions: for pest or weed control at 17933.6 g/ha: Amaranthus retroflexus, pre-emergence, 504 h, 16 lb/acre, about 3 weeks
Text: as §1, §2, §3, §4

Snapbeans [7] = assay: as above; conditions: for pest or weed control at 17933.6 g/ha: pre-emergence, 504 h, 16 lb/acre, about 3 weeks
Text: as §1, §2, §3, §4

Nutgrass [8] = assay: as above; conditions: pre-emergence, 504 h, 16 lb/acre, about 3 weeks
Text: as §1, §2, §3, §4

Corn [9] = assay: as above; conditions: for plant injury at 17933.6 g/ha: Zea mays, pre-emergence, 504 h, 16 lb/acre, about 3 weeks
Text: as §1, §2, §3, §4

Johnsongrass [10] = assay: as above; conditions: Sorghum halepense, pre-emergence, 504 h, 16 lb/acre, about 3 weeks
Text: as §1, §2, §3, §4

Alfalfa [11] = assay: as above; conditions: for pest or weed control at 17933.6 g/ha: Medicago sativa, pre-emergence, 504 h, 16 lb/acre, about 3 weeks
Text: as §1, §2, §3, §4

Foxtail [12] = assay: as above; conditions: Setaria, pre-emergence, 504 h, 16 lb/acre, about 3 weeks
Text: as §1, §2, §3, §4

Lambsquarters [13] = assay: as above; conditions: for pest or weed control at 17933.6 g/ha: Chenopodium album, pre-emergence, 504 h, 16 lb/acre, about 3 weeks
Text: as §1, §2, §3, §4

Cheatgrass [14] = assay: as above; conditions: for pest or weed control at 17933.6 g/ha: Bromus tectorum, pre-emergence, 504 h, 16 lb/acre, about 3 weeks
Text: as §1, §2, §3, §4

Cucumber [15] = assay: as above; conditions: for pest or weed control at 17933.6 g/ha: Cucumis sativus, pre-emergence, 504 h, 16 lb/acre, about 3 weeks
Text: as §1, §2, §3, §4

Chickweed [16] = assay: as above; conditions: for pest or weed control at 17933.6 g/ha: pre-emergence, 504 h, 16 lb/acre, about 3 weeks
Text: as §1, §2, §3, §4

Yellow Rocket [17] = assay: as above; conditions: pre-emergence, 504 h, 16 lb/acre, about 3 weeks
Text: as §1, §2, §3, §4

Velvetleaf [18] = assay: Postemergence herbicidal activity, % control of plant growth; conditions: Abutilon theophrasti, post-emergence, 264 h, 8 lb/acre, about 11 days
Text: (§5) By the term "postemergence" is meant that the compound is applied to the plant sought to be controlled after it has emerged from the soil surface. This term is also used to describe the application of herbicidally active compounds to soil surface in and around growing plants sought to be controlled for purposes of effecting root absorption by the undesirable plant species.
(§6) In the postemergence test the soil and developing plants were sprayed approximately 2 weeks after the seeds were sown. The compound was applied at the rate of 8 pounds per acre from about a 2 percent by weight solution of the test compound in acetone and/or alcohol. The postemergence herbicidal activity was measured in the same way as the preemergence activity; i.e. visual observation approximately 11 days after spraying, and expressed as the percent control of plant growth.
(§7) **Postemergence test: compound applied at rate of 8 lb/acre

Crabgrass [19] = assay: as above; conditions: Digitaria sanguinalis, post-emergence, 264 h, 8 lb/acre, about 11 days
Text: as §5, §6, §7

Wild Oats [20] = assay: as above; conditions: Avena fatua, post-emergence, 264 h, 8 lb/acre, about 11 days
Text: as §5, §6, §7

Barnyard Grass [21] = assay: as above; conditions: Echinochloa crus-galli, post-emergence, 264 h, 8 lb/acre, about 11 days
Text: as §5, §6, §7

Curled Dock [22] = assay: as above; conditions: post-emergence, 264 h, 8 lb/acre, about 11 days
Text: as §5, §6, §7

Pigweed [23] = assay: as above; conditions: Amaranthus retroflexus, post-emergence, 264 h, 8 lb/acre, about 11 days
Text: as §5, §6, §7

Snapbeans [24] = assay: as above; conditions: post-emergence, 264 h, 8 lb/acre, about 11 days
Text: as §5, §6, §7

Nutgrass [25] = assay: as above; conditions: post-emergence, 264 h, 8 lb/acre, about 11 days
Text: as §5, §6, §7

Corn [26] = assay: as above; conditions: Zea mays, post-emergence, 264 h, 8 lb/acre, about 11 days
Text: as §5, §6, §7

Johnsongrass [27] = assay: as above; conditions: Sorghum halepense, post-emergence, 264 h, 8 lb/acre, about 11 days
Text: as §5, §6, §7

Alfalfa [28] = assay: as above; conditions: Medicago sativa, post-emergence, 264 h, 8 lb/acre, about 11 days
Text: as §5, §6, §7

Foxtail [29] = assay: as above; conditions: Setaria, post-emergence, 264 h, 8 lb/acre, about 11 days
Text: as §5, §6, §7

Lambsquarters [30] = assay: as above; conditions: Chenopodium album, post-emergence, 264 h, 8 lb/acre, about 11 days
Text: as §5, §6, §7

Cheatgrass [31] = assay: as above; conditions: Bromus tectorum, post-emergence, 264 h, 8 lb/acre, about 11 days
Text: as §5, §6, §7

Cucumber [32] = assay: as above; conditions: Cucumis sativus, post-emergence, 264 h, 8 lb/acre, about 11 days
Text: as §5, §6, §7

Chickweed [33] = assay: as above; conditions: post-emergence, 264 h, 8 lb/acre, about 11 days
Text: as §5, §6, §7

Yellow Rocket [34] = assay: as above; conditions: post-emergence, 264 h, 8 lb/acre, about 11 days
Text: as §5, §6, §7

O=c1[nH]c2cccnc2c(=O)n1Cc1ccccc1 [3-benzyl-pyrido[3,2-d]pyrimidine-[2,4(1H,3H)-dione]
pest or weed control at 17933.6 g/ha (Velvetleaf [1]): 90% | herbicidal activity/control (Crabgrass [2]; 16 pounds per acre): total preemergence activity | pest or weed control at 17933.6 g/ha (Crabgrass [2]): 100% | pest or weed control at 17933.6 g/ha (Wild Oats [3]): 30% | pest or weed control at 17933.6 g/ha (Barnyard Grass [4]): 90% | herbicidal activity/control (Curled Dock [5]; 16 pounds per acre): total preemergence activity | pest or weed control at 17933.6 g/ha (Curled Dock [5]): 100% | herbicidal activity/control (Pigweed [6]; 16 pounds per acre): total preemergence activity | pest or weed control at 17933.6 g/ha (Pigweed [6]): 100% | herbicidal activity/control (Snapbeans [7]; 16 pounds per acre): no preemergence herbicidal activity | pest or weed control at 17933.6 g/ha (Snapbeans [7]): 10% | pest or weed control at 17933.6 g/ha (Nutgrass [8]): 0% | herbicidal activity/control (Corn [9]; 16 pounds per acre): no preemergence herbicidal activity | plant injury at 17933.6 g/ha (Corn [9]): 10% | pest or weed control at 17933.6 g/ha (Johnsongrass [10]): 90% | herbicidal activity/control (Alfalfa [11]; 16 pounds per acre): total preemergence activity | pest or weed control at 17933.6 g/ha (Alfalfa [11]): 100% | pest or weed control at 17933.6 g/ha (Foxtail [12]): 90% | herbicidal activity/control (Lambsquarters [13]; 16 pounds per acre): total preemergence activity | pest or weed control at 17933.6 g/ha (Lambsquarters [13]): 100% | herbicidal activity/control (Cheatgrass [14]; 16 pounds per acre): total preemergence activity | pest or weed control at 17933.6 g/ha (Cheatgrass [14]): 100% | herbicidal activity/control (Cucumber [15]; 16 pounds per acre): no preemergence herbicidal activity | pest or weed control at 17933.6 g/ha (Cucumber [15]): 0% | herbicidal activity/control (Chickweed [16]; 16 pounds per acre): total preemergence activity | pest or weed control at 17933.6 g/ha (Chickweed [16]): 100% | pest or weed control at 17933.6 g/ha (Yellow Rocket [17]): 90% | pest or weed control at 8966.8 g/ha (Velvetleaf [18]): 30% | pest or weed control at 8966.8 g/ha (Crabgrass [19]): 40% | pest or weed control at 8966.8 g/ha (Wild Oats [20]): 0% | pest or weed control at 8966.8 g/ha (Barnyard Grass [21]): 0% | pest or weed control at 8966.8 g/ha (Curled Dock [22]): 0% | pest or weed control at 8966.8 g/ha (Pigweed [23]): 100% | pest or weed control at 8966.8 g/ha (Snapbeans [24]): 0% | pest or weed control at 8966.8 g/ha (Nutgrass [25]): 0% | plant injury at 8966.8 g/ha (Corn [26]): 0% | pest or weed control at 8966.8 g/ha (Johnsongrass [27]): 0% | pest or weed control at 8966.8 g/ha (Alfalfa [28]): 0% | pest or weed control at 8966.8 g/ha (Foxtail [29]): 0% | pest or weed control at 8966.8 g/ha (Lambsquarters [30]): 60% | pest or weed control at 8966.8 g/ha (Cheatgrass [31]): 0% | pest or weed control at 8966.8 g/ha (Cucumber [32]): 10% | pest or weed control at 8966.8 g/ha (Chickweed [33]): 100% | pest or weed control at 8966.8 g/ha (Yellow Rocket [34]): 70%

CCCCn1c(=O)[nH]c2cccnc2c1=O [3-butyl-pyrido[3,2-d]pyrimidine-2,4(1H,3H)-dione]
pest or weed control at 17933.6 g/ha (Velvetleaf [1]): 100% | pest or weed control at 17933.6 g/ha (Crabgrass [2]): 90% | pest or weed control at 17933.6 g/ha (Wild Oats [3]): 100% | pest or weed control at 17933.6 g/ha (Barnyard Grass [4]): 100% | pest or weed control at 17933.6 g/ha (Curled Dock [5]): 90% | pest or weed control at 17933.6 g/ha (Pigweed [6]): 100% | pest or weed control at 17933.6 g/ha (Snapbeans [7]): 100% | pest or weed control at 17933.6 g/ha (Nutgrass [8]): 100% | plant injury at 17933.6 g/ha (Corn [9]): 100% | pest or weed control at 17933.6 g/ha (Johnsongrass [10]): 100% | pest or weed control at 17933.6 g/ha (Alfalfa [11]): 100% | pest or weed control at 17933.6 g/ha (Foxtail [12]): 100% | pest or weed control at 17933.6 g/ha (Lambsquarters [13]): 70% | pest or weed control at 17933.6 g/ha (Cheatgrass [14]): 100% | pest or weed control at 17933.6 g/ha (Cucumber [15]): 100% | pest or weed control at 17933.6 g/ha (Chickweed [16]): 100% | pest or weed control at 17933.6 g/ha (Yellow Rocket [17]): 100% | pest or weed control at 8966.8 g/ha (Velvetleaf [18]): 100% | pest or weed control at 8966.8 g/ha (Crabgrass [19]): 100% | pest or weed control at 8966.8 g/ha (Wild Oats [20]): 100% | pest or weed control at 8966.8 g/ha (Barnyard Grass [21]): 100% | pest or weed control at 8966.8 g/ha (Curled Dock [22]): 100% | pest or weed control at 8966.8 g/ha (Pigweed [23]): 90% | pest or weed control at 8966.8 g/ha (Snapbeans [24]): 100% | pest or weed control at 8966.8 g/ha (Nutgrass [25]): 90% | plant injury at 8966.8 g/ha (Corn [26]): 50% | pest or weed control at 8966.8 g/ha (Johnsongrass [27]): 100% | pest or weed control at 8966.8 g/ha (Alfalfa [28]): 50% | pest or weed control at 8966.8 g/ha (Foxtail [29]): 100% | pest or weed control at 8966.8 g/ha (Lambsquarters [30]): 10% | pest or weed control at 8966.8 g/ha (Cheatgrass [31]): 100% | pest or weed control at 8966.8 g/ha (Cucumber [32]): 100% | pest or weed control at 8966.8 g/ha (Chickweed [33]): 100% | pest or weed control at 8966.8 g/ha (Yellow Rocket [34]): 90%
